Source: US20070244030A1, “Method for Assessing Cancerous State” (SUMITOMO CHEMICAL COMPANY, LIMITED, priority 2003, published 2007)

Legend:
Neurofilament3 gene [1] = test: Real Time PCR of Neurofilament3 mRNA in PANC-1 cultured with methylation inhibitor; type: cell-based, human; conditions: PANC-1 pancreatic cancer cell line, cells recovered on fourth day, not detected without inhibitor
Protocol: (§1) Two kinds of human-derived pancreatic cancer cell lines (PANC-1 and HPAC) were seeded at a density of about 6×10^5 cells/10 cm plate, and cultured using an exclusively used medium. On the first day after seeding, 5-aza-2′-deoxytidine (manufactured by Sigma) (hereinafter, referred to as 5Aza-dC) which is a methylation inhibitor was added to a medium to give the concentration of 0.5 or 1 μM. Twenty four hours after addition of 5Aza-Dc, the medium was exchanged with the aforementioned medium to which no 5Aza-dC was added, and culturing was continued. Then, on the third day after seeding, 5Aza-dC was added to the medium similarly. […]
(§2) A reaction solution of PCR was used which was obtained by mixing 50 ng of a cDNA as a template, each 1 μl of two kinds of 10 pmol/μl aforementioned primer solution, 4 μl of 2.5 mM dNTP, 4 μl of 5 mM dUTP, 5 μl of 10×SYBR Green PCR Buffer, 6 μof 25 mM MgCl2 and 0.3 μl of a 5 U/μl thermostable DNA polymerase (AmpliTaq Gold), 0.5 μl of AmpEraseUNG and adding sterilized ultrapure water thereto to an amount of solution of 50 μl. […] When a DNA derived from mRNA of Neurofilament3 gene and GAPDH gene was amplified, after the reaction solution Was retained at 95° C. for 10 minutes, Real Time PCR was performed at the conditions under which each cycle was 30 seconds at 95° C., 30 seconds at 59° C. and 30 seconds at 72° C. to quantitate Neurofilament3 gene and GAPDH gene.

Neurofilament3 gene [2] = test: Real Time PCR of Neurofilament3 mRNA in HPAC cultured with methylation inhibitor; type: cell-based, human; conditions: HPAC pancreatic cancer cell line, cells recovered on fourth day, not detected without inhibitor
Protocol: as §1, §2

[3] = 0.5 μM 5Aza-dC added on first and third day
[4] = 1 μM 5Aza-dC added on first and third day

Measured: DNA derived from a mRNA of Neurofilament3 gene (expression of Neurofilament3 gene)

Nc1ncn([C@H]2C[C@H](O)[C@@H](CO)O2)c(=O)n1 [5Aza-dC, 5-aza-2′-deoxytidine]
detected: Neurofilament3 gene [1]; [3] | Neurofilament3 gene [1]; [4] | Neurofilament3 gene [2]; [3] | Neurofilament3 gene [2]; [4]
